These results are taken from patent US6703388B2, “Nitrogen-containing tricyclic compounds and drugs containing the same” (Eisai Co., Ltd., priority 1996, dated 2004).

Assay [1] addresses T1, tyrosine kinase of 72 kDa (Rattus norvegicus, UniProt Q64725).
T1 construct: endogenous in cells; host or cells: RBL-2H3 cells
Briefly: Inhibition of activation (phosphorylation) of tyrosine kinase of 72 kDa due to antigenic stimulation in RBL-2H3 cells. The assay is classed as cell-based. How it is done: RBL-2H3 cells were incubated for 10 min together with a test compound in a PBS buffer containing 0.1% of BSA and 1 mM of calcium. Next, the cells were reacted with an antigen specific for the IgE receptor for 10 min. After the completion of the antigenic stimulation, the cells were allowed to stand in ice for 1 hr in a 10 mM phosphate buffer (pH 7.5) containing a lysis buffer (1% Triton X-100, 0.1% SDS, 0.5% sodium deoxycholate, 50 mM NaCl, 50 mM NaF, 1 mM phenylmethyl sulfonyl fluoride, 50 μg/ml eupeptin, 10 unit/ml aprotonin) and 0.1% of NaN3 followed by centrifugation to give a cell lysate. This lysate was diluted with a buffer for electrophoresis, heated (95° C., 5 min) and then electrophoresed on a 10% SDS-polyacrylamide gel. After the electrophoresis, the sample was electrically transcribed onto a 0.2 μm nitrocellulose membrane and treated with an anti-phosphotyrosine antibody for 1 hr. Then the inhibitory activity was evaluated by the coloring analysis through chemiluminescence.

The subject of a further assay is human basophils. The experiment in a line: Inhibition of mediator (histamine, peptide leukotriene) liberation from human basophils stimulated with mite antigen. The assay is classed as cell-based. As to conditions: enzyme immunoassay. A digest of the protocol:
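Dextran-separated leukocyte fraction containing basophils from heparinized human blood, in D-PBS(+) with 0.1% BSA, pretreated with compound 15 min at 37 °C, then challenged with mite antigen for 10 min. Released histamine and peptide leukotrienes in supernatant quantified by enzyme immunoassay.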

A further assay concerns RBL-2H3 cells. The experiment in a line: Inhibition of serotonin liberation from IgE-sensitized RBL-2H3 cells after antigen stimulation. As to conditions: Rattus norvegicus; [3H]-serotonin release, IgE-sensitized RBL-2H3 cells, antigen stimulation; read-out: IC50 (μM) in serotonin liberation from RBL-2H3 cells. The assay is classed as cell-based, rat. The procedure, abridged: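 Rat RBL-2H3 cells labelled with [3H]-serotonin and sensitized with IgE simultaneously, incubated with compound, then challenged with specific antigen. Inhibition derived from [3H]-serotonin released into medium relative to release without compound.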

Where [2] appears, read: histamine, read-out: IC50 (μM) in mediator liberation from human basophils: histamine.
Where [3] appears, read: peptide leukotriene, read-out: IC50 (μM) in mediator liberation from human basophils: leukotriene.

Where two headings read alike, the source gives them in different places.

T1 sequence (Q64725 whole entry): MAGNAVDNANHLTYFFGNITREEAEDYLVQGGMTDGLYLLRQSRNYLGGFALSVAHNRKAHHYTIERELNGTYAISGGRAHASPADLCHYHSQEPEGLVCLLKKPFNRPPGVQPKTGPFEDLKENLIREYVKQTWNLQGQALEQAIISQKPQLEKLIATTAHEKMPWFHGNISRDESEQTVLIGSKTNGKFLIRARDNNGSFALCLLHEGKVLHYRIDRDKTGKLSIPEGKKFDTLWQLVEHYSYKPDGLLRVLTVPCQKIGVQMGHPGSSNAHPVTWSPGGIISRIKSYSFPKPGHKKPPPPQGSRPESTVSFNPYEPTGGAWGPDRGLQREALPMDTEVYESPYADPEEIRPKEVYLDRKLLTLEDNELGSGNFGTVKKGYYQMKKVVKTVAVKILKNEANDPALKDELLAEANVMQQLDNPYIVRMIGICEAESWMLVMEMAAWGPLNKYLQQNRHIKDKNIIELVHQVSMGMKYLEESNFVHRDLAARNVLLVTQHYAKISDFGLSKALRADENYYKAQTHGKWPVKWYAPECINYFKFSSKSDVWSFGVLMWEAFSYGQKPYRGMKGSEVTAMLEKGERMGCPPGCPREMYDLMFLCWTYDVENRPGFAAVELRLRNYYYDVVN

Consider `Cc1ccc2c(c1C)N(CCCN1CCN(S(=O)(=O)c3ccccc3)CC1)c1ccccc1[S+]2[O-]` (stereo not drawn) [Example 115], for which, in assay [1] (Conc. of Compd. 10 μM), the “Inhibitory Strength (%)” value came to 80%. In addition, the values for the IC50 in the assay on human basophils (setting [2]), in the assay with human basophils (setting [3]) and with RBL-2H3 cells were 30 to 100 µM, 10 µM and 3 µM, respectively.
For the compound `Cc1ccc2c(c1C)N(CCCNCc1ccccc1)c1ccccc1S2(=O)=O` [Example 200], the “Inhibitory Strength (%)” value in assay [1] (Conc. of Compd. 30 μM) is 70%. For the same compound, in the assay with RBL-2H3 cells, the IC50 came out at 0.4 µM.
With `Cc1ccc2c(c1C)N(CCCN(CCO)Cc1ccccc1)c1ccccc1[S+]2[O-]` (stereo not drawn) [Example 105], the “Inhibitory Strength (%)” value in assay [1] (Conc. of Compd. 3 μM) is recorded as 100%. Besides, the IC50 was 30 µM in the assay on human basophils (setting [2]), 10 to 30 µM in the assay on human basophils (setting [3]) and 2 µM in the assay with RBL-2H3 cells.
For the compound `Cc1ccc2c(c1C)N(CCCN1CCCCC1)c1ccccc1[S+]2[O-]` (stereo not drawn) [Example 104], the “Inhibitory Strength (%)” value in assay [1] (Conc. of Compd. 3 μM) was found to be 100%. Also, the IC50 in the assay with RBL-2H3 cells is < 3 µM.
For `Cc1ccc2c(c1C)N(CCCN1CCC(C(=O)O)CC1)c1ccccc1[S+]2[O-]` (stereo not drawn) [Example 129], in that order: 100% and < 1 µM.
`Cc1ccc2c(c1C)N(CCCNCc1ccccc1)c1cccc(CC(=O)O)c1[S+]2[O-]` (stereo not drawn) [Example 262]: the “Inhibitory Strength (%)” value in assay [1] (Conc. of Compd. 30 μM) amounted to 100%. In addition, the IC50 in the assay on RBL-2H3 cells was 8 µM.
Consider `Cc1ccc2c(c1C)N(CCCNc1ccccc1)c1ccccc1[S+]2[O-]` (stereo not drawn) [Example 123], for which, in assay [1] (Conc. of Compd. 30 μM), the “Inhibitory Strength (%)” value is recorded as 100%. In addition, the IC50 in the assay on human basophils (setting [2]) is 30 µM; in the assay on human basophils (setting [3]), 10 to 30 µM; with RBL-2H3 cells, 3 µM.
As for `Cc1ccc2c(c1C)N(CCCN(CC(=O)O)CC(=O)O)c1ccccc1[S+]2[O-]` (stereo not drawn) [Example 132], in assay [1] (Conc. of Compd. 3 μM), the “Inhibitory Strength (%)” value came out at 100%. Also, the IC50 in the assay with RBL-2H3 cells stood at 2 µM.
On to `Cc1ccc2c(=NOCCC(=O)O)c3ccccc3n(CCCNCc3ccccc3)c2c1C` [Example 235], for which the “Inhibitory Strength (%)” value in assay [1] (Conc. of Compd. 3 μM) is 100%. Besides, the values for the IC50 in the assay with human basophils (setting [2]), with human basophils (setting [3]) and in the assay with RBL-2H3 cells were 30 µM, 30 µM and < 1 µM, respectively.
Take `Cc1ccc2c(c1C)N(CCCN)c1ccccc1[S+]2[O-]` (stereo not drawn) [Example 8, 1,2-Dimethyl-10-(3-aminopropyl)phenothiazine-5-oxide]: in assay [1] (Conc. of Compd. 3 μM), the “Inhibitory Strength (%)” value worked out at 100%. Also, the IC50 with RBL-2H3 cells stood at 0.1 µM.
For `Cc1ccc2c(c1C)N(CCCNCc1ccccc1)c1cc(CCO)ccc1[S+]2[O-]` (stereo not drawn) [Example 94], the “Inhibitory Strength (%)” value in assay [1] (Conc. of Compd. 3 μM) worked out at 100%. Moreover, the IC50 in the assay on human basophils (setting [2]) was 30 to 100 µM; in the assay with human basophils (setting [3]), 10 µM; with RBL-2H3 cells, < 1 µM.
On to `Cc1ccc2c(c1C)N(CCCN)c1ccccc1S2(=O)=O` [Example 196, 1,2-Dimethyl-10-(3-aminopropyl)phenothiazine-5,5-dioxide], for which the “Inhibitory Strength (%)” value in assay [1] (Conc. of Compd. 30 μM) worked out at 30%. Further, the IC50 in the assay with RBL-2H3 cells is 5 µM.
On to `Cc1ccc2c(c1C)N(CCN(C)Cc1ccccc1OCCO)c1ccccc1[S+]2[O-]` (stereo not drawn) [Example 183], for which the IC50 in the assay on human basophils (setting [2]) is 30 to 100 µM; in the assay with human basophils (setting [3]) it was 10 to 30 µM; in the assay on RBL-2H3 cells it was 3 µM.
For `Cc1ccc2c(c1C)N(CCCNCc1ccccc1OCCO)c1ccccc1[S+]2[O-]` (stereo not drawn) [Example 46], in that order: 10 to 30 µM, 10 to 30 µM and 0.5 µM.
In the case of `Cc1ccc2c(c1C)N(C/C=C/CNCc1ccccc1)c1ccccc1[S+]2[O-]` (stereo not drawn) [Example 138, 1,2-Dimethyl-10-[4-benzylamino(2-butenyl)]phenothiazine-5-oxide], the “Inhibitory Strength (%)” value in assay [1] (Conc. of Compd. 10 μM) was determined as 100%. Moreover, the values for the IC50 with human basophils (setting [2]), in the assay on human basophils (setting [3]) and with RBL-2H3 cells were 10 to 30 µM, 10 µM and 3 µM, respectively.
Take `Cc1ccc2c(c1C)N(CCCCNCc1ccccc1)c1ccccc1[S+]2[O-]` (stereo not drawn) [Example 139]: the “Inhibitory Strength (%)” value in assay [1] (Conc. of Compd. 10 μM) is listed as 100%. Further, the IC50 with human basophils (setting [2]) was 30 to 100 µM; in the assay with human basophils (setting [3]) it was 10 to 30 µM; in the assay on RBL-2H3 cells, 2 µM.
Regarding `Cc1ccc2c(c1C)N(CCCNCc1ccc(O)cc1)c1ccccc1[S+]2[O-]` (stereo not drawn) [Example 25], the IC50 with human basophils (setting [2]) was 30 µM; in the assay with human basophils (setting [3]) it was 10 to 30 µM; in the assay with RBL-2H3 cells it was 3 µM.
As to `CCOC(=O)CN(CCCN1c2ccccc2[S+]([O-])c2ccc(C)c(C)c21)Cc1ccccc1O` (stereo not drawn) [Example 134], the IC50 in the assay on human basophils (setting [2]), in the assay with human basophils (setting [3]) and with RBL-2H3 cells was 3 µM in each case.
Take `Cc1ccc2c(c1C)N(CCCNCc1ccc(CO)o1)c1ccccc1[S+]2[O-]` (stereo not drawn) [Example 65]: the IC50 in the assay with human basophils (setting [2]) was 30 to 100 µM; in the assay with human basophils (setting [3]), 10 to 30 µM; in the assay on RBL-2H3 cells it was 0.5 µM.
For `COc1ccc(CN(C)CCCN2c3ccccc3[S+]([O-])c3ccc(C)c(C)c32)o1` (stereo not drawn) [Example 176], in that order: 30 to 100 µM, 10 to 30 µM and 2 µM.
For `Cc1ccc2c(c1C)N(CCCNCc1ccccc1O)c1ccccc1[S+]2[O-]` (stereo not drawn) [Example 23], in that order: 10 to 30 µM, 10 to 30 µM and 2 µM.
For `Cc1ccc2c(c1C)N(CCNCc1cccc(C(C)C)c1O)c1ccccc1[S+]2[O-]` (stereo not drawn) [Example 147], in that order: 10 µM, < 10 µM and 3 µM.
Regarding `COc1ccccc1CN(C)CCN1c2ccccc2[S+]([O-])c2ccc(C)c(C)c21` (stereo not drawn) [Example 182], the IC50 is 30 to 100 µM with human basophils (setting [2]), 10 to 30 µM with human basophils (setting [3]) and 2 µM in the assay on RBL-2H3 cells.
Turning to `Cc1ccc2c(c1C)N(CCNCc1ccccc1)c1ccccc1[S+]2[O-]` (stereo not drawn) [Example 143, 1,2-Dimethyl-10-(2-benzylaminoethyl)phenothiazine-5-oxide], the “Inhibitory Strength (%)” value in assay [1] (Conc. of Compd. 10 μM) is 100%. The IC50 in the assay on human basophils (setting [2]) is < 10 µM; in the assay with human basophils (setting [3]), < 10 µM; in the assay on RBL-2H3 cells, 3 µM.
Take `Cc1ccc2c(c1C)N(CCCCNCc1ccccc1O)c1ccccc1[S+]2[O-]` (stereo not drawn) [Example 140]: the results for the IC50 in the assay with human basophils (setting [2]), in the assay on human basophils (setting [3]) and with RBL-2H3 cells were 10 µM, 3 to 10 µM and 3 µM, respectively.
For `Cc1cc(C)c2c(c1C)N(CCCNCc1ccccc1)c1ccccc1[S+]2[O-]` (stereo not drawn) [Example 100], in that order: 3 µM, 10 µM and 2 µM.
For `Cc1ccc2c(c1C)N(CCCNCc1cccc(F)c1O)c1ccccc1[S+]2[O-]` (stereo not drawn) [Example 42], in that order: 3 to 10 µM, < 3 µM and 2 µM.
For `Cc1ccc2c(c1C)N(CCNCc1ccccc1OCCO)c1ccccc1[S+]2[O-]` (stereo not drawn) [Example 157], in that order: 30 to 100 µM, 10 to 30 µM and 1 µM.
In the case of `COc1ccc(CNCCCN2c3ccccc3[S+]([O-])c3ccc(C)c(C)c32)s1` (stereo not drawn) [Example 67], the IC50 with human basophils (setting [2]) is 10 to 30 µM; in the assay with human basophils (setting [3]) it was 10 to 30 µM; in the assay with RBL-2H3 cells, 1 µM.
Turning to `COc1ccsc1CNCCCN1c2cccc(Cl)c2[S+]([O-])c2ccc(C)c(C)c21` (stereo not drawn) [Example 83], the IC50 in the assay on human basophils (setting [2]) was 10 µM; with human basophils (setting [3]), 10 to 30 µM; with RBL-2H3 cells it was 2 µM.
For `COc1ccc2c(c1)N(CCCN(C)Cc1ccccc1O)c1c(ccc(C)c1C)[S+]2[O-]` (stereo not drawn) [Example 189], in that order: 3 to 10 µM, 3 to 10 µM and 0.8 µM.
For `Cc1ccc2c(c1C)N(CCCNCc1cccc(O)c1)c1ccccc1[S+]2[O-]` (stereo not drawn) [Example 24], in that order: 10 to 30 µM, 10 to 30 µM and 3 µM.
For `Cc1ccc2c(c1C)N(CCCNCc1cccc3c1OCO3)c1ccccc1[S+]2[O-]` (stereo not drawn) [Example 54], in that order: 10 µM, 3 to 10 µM and 1 µM.
On to `Cc1ccc2c(c1C)N(CCCN(CCN(C)C)Cc1ccccc1)c1ccccc1[S+]2[O-]` (stereo not drawn) [Example 125], for which the IC50 is < 10 µM in the assay with human basophils (setting [2]), < 10 µM with human basophils (setting [3]) and 2 µM with RBL-2H3 cells.
`Cc1ccc2c(c1C)N(CCCNCc1cc(Cl)cc(Cl)c1O)c1ccccc1[S+]2[O-]` (stereo not drawn) [Example 34]: the figures for the IC50 with human basophils (setting [2]), in the assay on human basophils (setting [3]) and in the assay on RBL-2H3 cells were 3 to 10 µM, 3 µM and 2 µM, respectively.
Turning to `Cc1ccc2c(=NOC(C)C(=O)O)c3ccccc3n(CCCNCc3ccccc3)c2c1C` (stereo not drawn) [Example 236], the “Inhibitory Strength (%)” value in assay [1] (Conc. of Compd. 3 μM) was 70%. Further, the IC50 with RBL-2H3 cells came to 1 µM.
`Cc1ccc2c(c1C)N(CCCN(C)Cc1ccc(CO)o1)c1ccccc1[S+]2[O-]` (stereo not drawn) [Example 177]: the IC50 in the assay with human basophils (setting [2]) was 10 µM; in the assay with human basophils (setting [3]), < 3 µM; in the assay with RBL-2H3 cells, 1 µM.
For `Cc1ccc2c(c1C)N(CCCNCc1ccccc1N(C)C)c1ccccc1[S+]2[O-]` (stereo not drawn) [Example 50], in that order: 30 µM, 10 to 30 µM and 2 µM.
For `Cc1ccc2c(c1C)N(CCCNCc1c(O)cccc1O)c1ccccc1[S+]2[O-]` (stereo not drawn) [Example 36], in that order: 3 to 10 µM, 3 to 10 µM and 1 µM.
